Columns and labels:
S. mansoni [1] = details: vertebrate host; cited from earlier work
S. mansoni [2] = assay: Couples of S. mansoni recovered from infected BALB/c mice by perfusion after treatment; type: in vivo, Schistosoma mansoni; details: 10 mg/kg of weight, after 40 days of infection with S. mansoni
Description: FIG. 8—graph with the number of recovered worms vs. effect of the drug. Couples of S. mansoni recovered from BALB/c mice by perfusion of the door-kidney system. Five mice, after 40 days of infection (approximately 200 cercariae), were submitted to test with a single dose of the drug dinitrocubebine (10 mg/kg of weight). In the group untreated (negative control treated only with a 5% dimethyl sulfoxide solution in water), 40 couples/animal were recovered. In the treated group, only 5 couples were recovered. […] FIG. 9—graph with the number of recovered worms vs. effect of the drug. Couples of S. mansoni recovered from BALB/c mice by perfusion of the door-kidney system. Five mice, after 40 days of infection (approximately 200 cercariae), were submitted to test with a single dose of the drug methylcubebin (10 mg/kg of weight). In the untreated group (negative control treated only with a 5% dimethyl sulfoxide solution in water), 40 couples/animal were recovered. In the treated group, only five couples were recovered. […] In in vivo tests, the drugs (−)—O-methylcubebin (6) and (−)-6,6′-dinitronokinin (8) presented results similar to the obtained with praziquantel, in the same concentration (10 mg/kg of weight), i.e. reduction of approximately 90% of the viable worms, after 40 days of infection with S. mansoni. […] Such a result was extremely important and promising, since the drug was given to the parasites when they were still maturing and had not yet reached the evolutive form of adult worms. […] Thus, the developed medicine may be used not only as a healing drug, but also as a prophylactic drug in the combat against schistosomosis. Another advantage relates to the low toxicity of these substances for use in antiparasitic therapeutics, since many of these derivatives have hepatic-protecting and antioxidant action. Thus, the use of these lignans certainly offers higher safety for therapeutic use than praziquantel. So, the use of these substances in medicines for longer treatments is safer than with praziquantel and they have nearly no significant side effects. Finally, this group of substances is obtained from natural sources, which is not applicable to praziquantel.

Schistosoma = details: patients; cited from earlier work

Compound: O=C(C1CCCCC1)N1CC(=O)N2CCc3ccccc3C2C1 (stereo not drawn) [praziquantel]
- evolutive form of S. mansoni acted on (S. mansoni [1]): acts only on the evolutive form of adult worms
- reduction of the viable worms (S. mansoni [2]): approximately 90%
- side effects (Schistosoma): abdominal pain, diarrhea, fever and urticaria-shaped reactions
